Where two headings read alike, the source gives them in different places.
Tested on: PABPC1 PABC
Type: binding, human
Details: DMS-BM library, bait PABPC1 PABC, row aa = residue at this position; for DMS-derived PSSM value (averaged), position S13 / DMS-derived PSSM value, position S2 / DMS-derived PSSM value, position S15 / DMS-derived PSSM value, position S13: S = wild type; for DMS-derived PSSM value, position F14 / DMS-derived PSSM value, position F16 / DMS-derived PSSM value (averaged), position F9 / DMS-derived PSSM value, position F9 / DMS-derived PSSM value, position F11 / DMS-derived PSSM value (averaged), position F14: F = wild type; for DMS-derived PSSM value, position K7: K = wild type; for DMS-derived PSSM value, position A6 / DMS-derived PSSM value, position A8 / DMS-derived PSSM value (averaged), position A6: A = wild type
[1] = prey ATXN2, TLNPNAKEFNPRSF(averaged) over the two overlapping peptides, N = wild type
[2] = prey ATXN2, TLNPNAKEFNPRSF(averaged) over the two overlapping peptides
[3] = prey ATXN2, peptide KSTLNPNAKEFNPRSF, N = wild type
[4] = prey ATXN2, peptide TLNPNAKEFNPRSFSQ
[5] = prey ATXN2, peptide KSTLNPNAKEFNPRSF
[6] = prey ATXN2, peptide TLNPNAKEFNPRSFSQ, N = wild type
[7] = prey ATXN2, peptide TLNPNAKEFNPRSFSQ, L = wild type
[8] = prey ATXN2, peptide KSTLNPNAKEFNPRSF, T = wild type
[9] = prey ATXN2, TLNPNAKEFNPRSF(averaged) over the two overlapping peptides, P = wild type
[10] = prey ATXN2, TLNPNAKEFNPRSF(averaged) over the two overlapping peptides, L = wild type
[11] = prey ATXN2, peptide KSTLNPNAKEFNPRSF, E = wild type
[12] = prey ATXN2, peptide TLNPNAKEFNPRSFSQ, E = wild type

In the case of “TLNPNAKEFNPRSF(averaged) N3S (TLSPNAKEFNPRSF)”, the “DMS-derived PSSM value (averaged), position N3” value [1] was 0.2635.

With “TLNPNAKEFNPRSF(averaged) S13N (TLNPNAKEFNPRNF)” the “DMS-derived PSSM value (averaged), position S13” value [2] was 0.08567.

In the case of “KSTLNPNAKEFNPRSF N12Q (KSTLNPNAKEFQPRSF)”, the “DMS-derived PSSM value, position N12” value [3] was 0.02863.

“TLNPNAKEFNPRSFSQ F14E (TLNPNAKEFNPRSESQ)” was tested, and the “DMS-derived PSSM value, position F14” value [4] was 0.02018.

With “KSTLNPNAKEFNPRSF F16Y (KSTLNPNAKEFNPRSY)” the “DMS-derived PSSM value, position F16” value [5] was 0.101.

With TLNPNAKEFNPRSFSQ K7N (TLNPNANEFNPRSFSQ) the “DMS-derived PSSM value, position K7” value [4] was 0.08014.

For TLNPNAKEFNPRSFSQ K7A (TLNPNAAEFNPRSFSQ), the “DMS-derived PSSM value, position K7” value [4] was 0.2382.

TLNPNAKEFNPRSFSQ N5M (TLNPMAKEFNPRSFSQ) was tested, and the “DMS-derived PSSM value, position N5” value [6] was 0.7094.

In the case of KSTLNPNAKEFNPRSF S2V (KVTLNPNAKEFNPRSF), the “DMS-derived PSSM value, position S2” value [5] was 0.1043.

TLNPNAKEFNPRSFSQ L2F (TFNPNAKEFNPRSFSQ) was tested, and the “DMS-derived PSSM value, position L2” value [7] was 0.1032.

With “KSTLNPNAKEFNPRSF S15E (KSTLNPNAKEFNPREF)” the “DMS-derived PSSM value, position S15” value [5] was 0.02092.

In the case of TLNPNAKEFNPRSFSQ A6M (TLNPNMKEFNPRSFSQ), the “DMS-derived PSSM value, position A6” value [4] was 0.

“TLNPNAKEFNPRSF(averaged) F9I (TLNPNAKEINPRSF)” was tested, and the “DMS-derived PSSM value (averaged), position F9” value [2] was 0.

In the case of “TLNPNAKEFNPRSFSQ F14Q (TLNPNAKEFNPRSQSQ)”, the “DMS-derived PSSM value, position F14” value [4] was 0.1174.

With KSTLNPNAKEFNPRSF T3A (KSALNPNAKEFNPRSF) the “DMS-derived PSSM value, position T3” value [8] was 0.04081.

In the case of “KSTLNPNAKEFNPRSF F16P (KSTLNPNAKEFNPRSP)”, the “DMS-derived PSSM value, position F16” value [5] was 0.0009324.

“TLNPNAKEFNPRSF(averaged) P4S (TLNSNAKEFNPRSF)” was tested, and the “DMS-derived PSSM value (averaged), position P4” value [9] was 0.01466.

“TLNPNAKEFNPRSF(averaged) L2F (TFNPNAKEFNPRSF)” was tested, and the “DMS-derived PSSM value (averaged), position L2” value [10] was 0.05162.

For TLNPNAKEFNPRSFSQ F9D (TLNPNAKEDNPRSFSQ), the “DMS-derived PSSM value, position F9” value [4] was 0.002637.

“TLNPNAKEFNPRSF(averaged) F9W (TLNPNAKEWNPRSF)” was tested, and the “DMS-derived PSSM value (averaged), position F9” value [2] was 0.4279.

For “TLNPNAKEFNPRSF(averaged) E8F (TLNPNAKFFNPRSF)”, the “DMS-derived PSSM value (averaged), position E8” value (prey ATXN2, TLNPNAKEFNPRSF(averaged) over the two overlapping peptides, E = wild type) was 0.

In the case of TLNPNAKEFNPRSFSQ N3A (TLAPNAKEFNPRSFSQ), the “DMS-derived PSSM value, position N3” value [6] was 0.

“KSTLNPNAKEFNPRSF E10G (KSTLNPNAKGFNPRSF)” was tested, and the “DMS-derived PSSM value, position E10” value [11] was 0.

In the case of “TLNPNAKEFNPRSFSQ S13P (TLNPNAKEFNPRPFSQ)”, the “DMS-derived PSSM value, position S13” value [4] was 0.0852.

“TLNPNAKEFNPRSF(averaged) S13I (TLNPNAKEFNPRIF)” was tested, and the “DMS-derived PSSM value (averaged), position S13” value [2] was 0.01901.

With TLNPNAKEFNPRSFSQ L2R (TRNPNAKEFNPRSFSQ) the “DMS-derived PSSM value, position L2” value [7] was 0.

For “TLNPNAKEFNPRSF(averaged) P11V (TLNPNAKEFNVRSF)”, the “DMS-derived PSSM value (averaged), position P11” value [9] was 0.44.

In the case of KSTLNPNAKEFNPRSF S2N (KNTLNPNAKEFNPRSF), the “DMS-derived PSSM value, position S2” value [5] was 0.

“KSTLNPNAKEFNPRSF F11M (KSTLNPNAKEMNPRSF)” was tested, and the “DMS-derived PSSM value, position F11” value [5] was 0.

For “TLNPNAKEFNPRSF(averaged) L2H (THNPNAKEFNPRSF)”, the “DMS-derived PSSM value (averaged), position L2” value [10] was 0.

TLNPNAKEFNPRSFSQ T1G (GLNPNAKEFNPRSFSQ) was tested, and the “DMS-derived PSSM value, position T1” value (prey ATXN2, peptide TLNPNAKEFNPRSFSQ, T = wild type) was 0.1015.

In the case of “KSTLNPNAKEFNPRSF F11N (KSTLNPNAKENNPRSF)”, the “DMS-derived PSSM value, position F11” value [5] was 0.09626.

With KSTLNPNAKEFNPRSF A8V (KSTLNPNVKEFNPRSF) the “DMS-derived PSSM value, position A8” value [5] was 0.4196.

With “KSTLNPNAKEFNPRSF R14V (KSTLNPNAKEFNPVSF)” the “DMS-derived PSSM value, position R14” value (prey ATXN2, peptide KSTLNPNAKEFNPRSF, R = wild type) was 0.03521.

KSTLNPNAKEFNPRSF A8K (KSTLNPNKKEFNPRSF) was tested, and the “DMS-derived PSSM value, position A8” value [5] was 0.

“TLNPNAKEFNPRSF(averaged) F14W (TLNPNAKEFNPRSW)” was tested, and the “DMS-derived PSSM value (averaged), position F14” value [2] was 0.01444.

For “TLNPNAKEFNPRSF(averaged) N5S (TLNPSAKEFNPRSF)”, the “DMS-derived PSSM value (averaged), position N5” value [1] was 0.02321.

“TLNPNAKEFNPRSF(averaged) F14A (TLNPNAKEFNPRSA)” was tested, and the “DMS-derived PSSM value (averaged), position F14” value [2] was 0.04899.

With TLNPNAKEFNPRSFSQ F9E (TLNPNAKEENPRSFSQ) the “DMS-derived PSSM value, position F9” value [4] was 0.05407.

For “TLNPNAKEFNPRSFSQ S13R (TLNPNAKEFNPRRFSQ)”, the “DMS-derived PSSM value, position S13” value [4] was 0.001962.

With TLNPNAKEFNPRSFSQ F9G (TLNPNAKEGNPRSFSQ) the “DMS-derived PSSM value, position F9” value [4] was 0.

For TLNPNAKEFNPRSFSQ E8G (TLNPNAKGFNPRSFSQ), the “DMS-derived PSSM value, position E8” value [12] was 0.

With “TLNPNAKEFNPRSF(averaged) A6I (TLNPNIKEFNPRSF)” the “DMS-derived PSSM value (averaged), position A6” value [2] was 0.01774.

In the case of “TLNPNAKEFNPRSF(averaged) P11F (TLNPNAKEFNFRSF)”, the “DMS-derived PSSM value (averaged), position P11” value [9] was 0.06425.

With “TLNPNAKEFNPRSF(averaged) S13P (TLNPNAKEFNPRPF)” the “DMS-derived PSSM value (averaged), position S13” value [2] was 0.06349.

With TLNPNAKEFNPRSFSQ E8W (TLNPNAKWFNPRSFSQ) the “DMS-derived PSSM value, position E8” value [12] was 0.

With “TLNPNAKEFNPRSF(averaged) N5M (TLNPMAKEFNPRSF)” the “DMS-derived PSSM value (averaged), position N5” value [1] was 0.3686.

“TLNPNAKEFNPRSF(averaged) S13L (TLNPNAKEFNPRLF)” was tested, and the “DMS-derived PSSM value (averaged), position S13” value [2] was 0.2429.

For TLNPNAKEFNPRSFSQ A6H (TLNPNHKEFNPRSFSQ), the “DMS-derived PSSM value, position A6” value [4] was 0.

In the case of “KSTLNPNAKEFNPRSF E10M (KSTLNPNAKMFNPRSF)”, the “DMS-derived PSSM value, position E10” value [11] was 0.002857.

With KSTLNPNAKEFNPRSF L4F (KSTFNPNAKEFNPRSF) the “DMS-derived PSSM value, position L4” value (prey ATXN2, peptide KSTLNPNAKEFNPRSF, L = wild type) was 0.

In the case of KSTLNPNAKEFNPRSF T3K (KSKLNPNAKEFNPRSF), the “DMS-derived PSSM value, position T3” value [8] was 0.

For KSTLNPNAKEFNPRSF N7W (KSTLNPWAKEFNPRSF), the “DMS-derived PSSM value, position N7” value [3] was 0.

In the case of “TLNPNAKEFNPRSFSQ S13A (TLNPNAKEFNPRAFSQ)”, the “DMS-derived PSSM value, position S13” value [4] was 0.2244.

For TLNPNAKEFNPRSFSQ K7S (TLNPNASEFNPRSFSQ), the “DMS-derived PSSM value, position K7” value [4] was 0.01353.

KSTLNPNAKEFNPRSF N5V (KSTLVPNAKEFNPRSF) was tested, and the “DMS-derived PSSM value, position N5” value [3] was 0.

For “TLNPNAKEFNPRSFSQ R12L (TLNPNAKEFNPLSFSQ)”, the “DMS-derived PSSM value, position R12” value (prey ATXN2, peptide TLNPNAKEFNPRSFSQ, R = wild type) was 0.01731.

For “KSTLNPNAKEFNPRSF P13V (KSTLNPNAKEFNVRSF)”, the “DMS-derived PSSM value, position P13” value (prey ATXN2, peptide KSTLNPNAKEFNPRSF, P = wild type) was 0.767.

In the case of “TLNPNAKEFNPRSF(averaged) F14Y (TLNPNAKEFNPRSY)”, the “DMS-derived PSSM value (averaged), position F14” value [2] was 0.08672.

“TLNPNAKEFNPRSF(averaged) P11Q (TLNPNAKEFNQRSF)” was tested, and the “DMS-derived PSSM value (averaged), position P11” value [9] was 0.04932.

TLNPNAKEFNPRSFSQ N3D (TLDPNAKEFNPRSFSQ) was tested, and the “DMS-derived PSSM value, position N3” value [6] was 0.1652.

For “TLNPNAKEFNPRSF(averaged) P4K (TLNKNAKEFNPRSF)”, the “DMS-derived PSSM value (averaged), position P4” value [9] was 0.

“TLNPNAKEFNPRSFSQ F14N (TLNPNAKEFNPRSNSQ)” was tested, and the “DMS-derived PSSM value, position F14” value [4] was 0.0664.

In the case of “TLNPNAKEFNPRSF(averaged) A6E (TLNPNEKEFNPRSF)”, the “DMS-derived PSSM value (averaged), position A6” value [2] was 0.

TLNPNAKEFNPRSFSQ P4R (TLNRNAKEFNPRSFSQ) was tested, and the “DMS-derived PSSM value, position P4” value (prey ATXN2, peptide TLNPNAKEFNPRSFSQ, P = wild type) was 0.

For “KSTLNPNAKEFNPRSF S15N (KSTLNPNAKEFNPRNF)”, the “DMS-derived PSSM value, position S15” value [5] was 0.1002.

In the case of TLNPNAKEFNPRSFSQ L2N (TNNPNAKEFNPRSFSQ), the “DMS-derived PSSM value, position L2” value [7] was 0.

“KSTLNPNAKEFNPRSF F16R (KSTLNPNAKEFNPRSR)” was tested, and the “DMS-derived PSSM value, position F16” value [5] was 0.

For “TLNPNAKEFNPRSF(averaged) P4F (TLNFNAKEFNPRSF)”, the “DMS-derived PSSM value (averaged), position P4” value [9] was 0.005863.

Source: paper PMC12102759 (Protein Science : A Publication of the Protein Society, 2025)
